According to patent EP0908457B1, “3-(1,2-benzisothiazol- and isoxazol-5-Y1)-2,4(1H,3H)-pyrimidinedione or thione and 3-(1,2-benzisothiazol- and isoxazol-5-y1)-4(3H)-pyrimidinone or thione herbicidal agents” (BASF AKTIENGESELLSCHAFT, priority 1997, dated 1999):

Columns and labels:
[1] = tested on: Sagittaria pygmaea, L.; experiment: Preemergence weed control under flooded paddy conditions, SAGPY (Arrowhead (Pygmaea)); type: in vivo; conditions: flooded paddy, rated three to four weeks after treatment
[2] = tested on: Oryza sativa, (L.) Tebonnet; experiment: Rice tolerance to post-transplant applications under flooded paddy conditions (Example 187), ORYSAT (Rice, Tebonnet); conditions: rated three to four weeks after treatment
[3] = tested on: Cyperus serotinus, Rottb.; experiment: Preemergence weed control under flooded paddy conditions, CYPSE (Flatsedge); type: in vivo; conditions: rated three to four weeks after treatment
[4] = tested on: Cyperus iria; experiment: Preemergence weed control under flooded paddy conditions, CYPIR (Rice Flatsedge); type: in vivo; conditions: flooded paddy, rated three to four weeks after treatment
[5] = tested on: Echinochloa oryzoides (Ard.) Fritsch.; experiment: Preemergence weed control under flooded paddy conditions, ECHORC (Watergrass (Calif.)); type: in vivo; conditions: flooded paddy, rated three to four weeks after treatment
[6] = Rate 0.0320 kg/ha, preemergence weeds
[7] = Rate 0.0620 kg/ha, preemergence weeds
[8] = Rate 0.1250 kg/ha, preemergence weeds
[9] = Rate 0.2500 kg/ha, preemergence weeds
[10] = Rate 0.0320 kg/ha, preemergence
[11] = Rate 0.0620 kg/ha, preemergence
[12] = Rate 0.1250 kg/ha, preemergence
[13] = Rate 0.2500 kg/ha, preemergence
Also: meaning of each grade not given here.

Compound	herbicidal effect rating, SAGPY [1, 9]	herbicidal effect rating ORYSAT ([2]; Rate 0.0320 kg/ha)	herbicidal effect rating ORYSAT ([2]; Rate 0.0620 kg/ha)	herbicidal effect rating ORYSAT ([2]; Rate 0.1250 kg/ha)	herbicidal effect rating ORYSAT ([2]; Rate 0.2500 kg/ha)	herbicidal effect rating, CYPSE [3, 9]	herbicidal effect rating, CYPIR [4, 9]	herbicidal effect rating, ECHORC [5, 9]	herbicidal effect rating, SAGPY [1, 10]	herbicidal effect rating, SAGPY [1, 11]	herbicidal effect rating, SAGPY [1, 12]	herbicidal effect rating, CYPSE [3, 10]	herbicidal effect rating, CYPSE [3, 11]	herbicidal effect rating, CYPSE [3, 12]	herbicidal effect rating, CYPIR [4, 10]	herbicidal effect rating, CYPIR [4, 11]	herbicidal effect rating, CYPIR [4, 12]	herbicidal effect rating, ECHORC [5, 10]	herbicidal effect rating, ECHORC [5, 11]	herbicidal effect rating, ECHORC [5, 12]	further results
COC(=O)C(C)Oc1ccc(OC)cc1-c1nsc2ccc(-n3c(=O)cc(C(F)(F)F)n(C)c3=O)cc12 (stereo not drawn) [Example 348, Propionic acid, 2-{2-{5-[3,6-dihydro-3-methyl-2,6-dioxo-4-(trifluoromethyl)-1(2H)-pyrimidinyl]-1,2-benzisothiazol-3-yl}-4-methoxyphenoxy}-, methyl ester]	9.0	2.0	3.0	4.0	5.0	0.0	9.0	9.0	–	–	–	–	–	–	–	–	–	–	–	–	herbicidal effect rating, SAGPY [1, 6]: 4.0; herbicidal effect rating, SAGPY [1, 7]: 6.0; herbicidal effect rating, SAGPY [1, 8]: 7.0; herbicidal effect rating, CYPSE [3, 6]: 0.0; herbicidal effect rating, CYPSE [3, 7]: 0.0; herbicidal effect rating, CYPSE [3, 8]: 0.0; herbicidal effect rating, CYPIR [4, 6]: 0.0; herbicidal effect rating, CYPIR [4, 7]: 0.0; herbicidal effect rating, CYPIR [4, 8]: 6.0; herbicidal effect rating, ECHORC [5, 6]: 6.0; herbicidal effect rating, ECHORC [5, 7]: 6.0; herbicidal effect rating, ECHORC [5, 8]: 7.0
C#CCOC(=O)COc1ccc(OC)cc1-c1nsc2ccc(-n3c(=O)cc(C(F)(F)F)n(C)c3=O)cc12 [Example 349, Acetic acid, {2-{5-[3,6-dihydro-3-methyl-2,6-dioxo-4-(trifluoromethyl)-1(2H)-pyrimidinyl]-1,2-benzisothiazol-3-yl}-4-methoxyphenoxy}-, 2-propynyl ester]	6.0	4.0	5.0	7.0	7.0	4.0	7.0	7.0	4.0	5.0	5.0	4.0	4.0	4.0	0.0	4.0	7.0	5.0	5.0	6.0	–
C=CCOC(C)c1nsc2ccc(-n3c(=O)cc(C(F)(F)F)n(C)c3=O)cc12 (stereo not drawn) [Example 351, 2,4(1H,3H)-Pyrimidinedione, 3-{3-[1-(allyloxy)ethyl]-1,2-benzisothiazol-5-yl}-1-methyl-6-(trifluoromethyl)-]	–	7.0	7.0	7.0	9.0	–	–	–	5.0	6.0	7.0	0.0	6.0	6.0	6.0	7.0	7.0	5.0	6.0	6.0	herbicidal effect rating, SAGPY [1, 13]: 7.0; herbicidal effect rating, CYPSE [3, 13]: 8.0; herbicidal effect rating, CYPIR [4, 13]: 9.0; herbicidal effect rating, ECHORC [5, 13]: 7.0
